Experiments:
[1] = test system: M-NFS-60 cells; assay: M-NFS-60 cell proliferation assay (Alamar Blue); format: cell-based, mouse; details: Mus musculus; 72 hours incubation, M-CSF 20 ng/mL; read-out: CSF1R M-NFS-60 CTB:IC50
Description: The compounds disclosed herein were tested in an M-NFS-60 cell proliferation assay to determine their cellular potency against CSF1R. M-NFS-60s are mouse monocytic cells that depend on the binding of the ligand M-CSF to its receptor, CSF1R, to proliferate. Inhibition of CSF1R kinase activity will cause reduced growth and/or cell death. This assay assesses the potency of compounds as CSF1R inhibitors by measuring the reduction of Alamar Blue reagent by viable cells.
On day one of the experiment, M-NFS-60 cells were maintained in RPMI complete medium (Omega Scientific) plus 10% FBS supplemented with 20 ng/mL of M-CSF (R&D Systems). 96-well TC-treated, flat bottom plates were seeded at 10,000 cell/well at a volume of 100 μL per well. The cells were cultured overnight at 37° C. under 5% CO2.
On day two, compounds were added to the cells at 9 different concentrations, with half-log intervals alongside a control reference compound serving as a positive control. Final DMSO concentration was kept at 0.5% for a final volume of 200 μL. The compounds were allowed to incubate with the cells for 72 hours at 37° C. under 5% CO2.
On day five of the experiment, 40 μl of Alamar Blue reagent was added to each well and allowed to incubate for 3 hours. Alamar Blue fluorescence was read using SoftMax Pro software at 560 nm (excitation) and 590 nm (emission). IC50s were generated as an average of duplicates and represents the concentration of test compound that achieves 50% inhibition of cellular proliferation compared to control.

[2] = biological target: T1, CSF1R (Homo sapiens, UniProt P07333); assay: HEK293 CSF1R phosphorylation MSD assay; format: cell-based; set-up: expressed in transfected cells; host or cells: HEK293; details: 2 h compound, human M-CSF 50 ng/mL for 5 min; read-out: HEK293 pCSF1R M-CSF MSD:IC50
Description: The compounds disclosed herein were tested in a CSF1R phosphorylation assay to determine their cellular potency against CSF1R. A HEK293 cell line expressing CSF1R fused to FK506 binding protein (FKBP) as a molecular tag was generated. Inhibition of CSF1R kinase activity will prevent ligand-stimulated autophosphorylation of the CSF1R-FKBP in intact cells. Subsequent cell lysates are assayed in a sandwich ELISA employing the electrochemiluminescent Meso Scale Discovery (MSD) technology for the presence of the phosphorylated (p)CSF1R-FKBP. This assay determines the potency of compounds as CSF1R inhibitors by measuring the reduction in the amount of pCSF1R with increasing doses of compounds added to the cells prior to M-CSF stimulation.
On day one of the experiment, HEK293-CSF1R-FKPB cells, maintained in DMEM, with L-glutamine (Mediatech), 10% FBS, and 100 units/mL Penicillin/Streptomycin, were seeded at 50,000 cell/well in a volume of 100 μL per well in 96-well Cell Bind plates (Costar). The cells were cultured overnight at 37° C. under 5% CO2. To prepare the plates used in the MSD assay, a 330 nM biotin-FK506 (in TBS pH 7.2) solution was added at 30 μL per well to streptavidin-coated 96-well plates (MSD), and incubated overnight at room temperature, shaking at 500 rpm on an orbital shaker.
On day two, compounds diluted in DMSO were added to the cells in duplicate plates at 9 different concentrations with half-log intervals, plus DMSO only control, alongside a reference compound serving as a positive control. Final DMSO concentration was 0.5% in a volume of 200 μL per well. The compounds were allowed to incubate with the cells for 2 h at 37° C. under 5% CO2. At the end of the incubation, human M-CSF (R&D Systems) was added for 5 min to a final concentration of 50 ng/mL to stimulate CSF1R phosphorylation. Cells were lysed for 20 min, and the lysates were applied to the washed, FK506-coated MSD plates, and incubated overnight at 4° C. shaking at 500 rpm.
On day three, the MSD plates were washed, and the captured CSF1R-FKBP was assayed sequentially for phosphorylation using mouse anti-phosphotyrosine antibody (Millipore) and Sulfo-TAG goat anti-mouse IgG antibody (MSD), and detected on a Sector Imager 6000 instrument (MSD).
A single IC50 value for each compound was determined by averaging the IC50s of the duplicates calculated using Igor Pro 6 software, and represents the compound concentration that achieves a 50% inhibition of ligand-induced CSF1R phosphorylation compared to DMSO control.

[3] = biological target: T2, PDGFRβ (Homo sapiens, UniProt P09619); assay: Competition binding assay, PDGFRβ Kd
T2 construct: made in house
Description: (§1) Competition binding assays used herein were developed, validated and performed as described in Fabian et al., Nature Biotechnology 2005, 23, 329-336. Kinases were produced as fusions to T7 phage (See, Fabian et al. or WO04/015142) or alternatively, the kinases were expressed in HEK-293 cells and subsequently tagged with DNA for PCR detection (See, WO08/005310). For the binding assays, streptavidin-coated magnetic beads were treated with biotinylated affinity ligands for 30 min at room temperature to generate affinity resins. The liganded beads were blocked with excess biotin and washed with blocking buffer (SeaBlock (Pierce), 1% BSA, 0.05% Tween 20, 1 mM DTT) to remove unbound ligand and to reduce non-specific binding. Binding reactions were assembled by combining kinase, liganded affinity beads, and test compounds in 1× binding buffer (20% SeaBlock, 0.17×PBS, 0.05% Tween 20, 6 mM DTT). Test compounds were prepared as 100× stocks in DMSO and diluted into the aqueous environment. Kds were determined using an eleven point threefold serial dilutions. DMSO or control compounds were was added to control assays lacking a test compound. Primary screen assays were performed in polypropylene 384-well plates in a final volume of 20-40 μL, while Kd determinations were performed in polystyrene 96-well plates in a final volume of 135 μL. The assay plates were incubated at room temperature with shaking for 1 hour to allow the binding reactions to reach equilibrium, and the affinity beads were washed extensively with wash buffer (1×PBS, 0.05% Tween 20) to remove unbound protein. The beads were then resuspended in elution buffer (1×PBS, 0.05% Tween […] non-biotinylated affinity ligand) and incubated at room temperature with shaking for 30 min. The kinase concentration in the eluates was measured by quantitative PCR.

[4] = biological target: T1, CSF1R; assay: Competition binding assay, CSF1R Kd; set-up: made in house
Description: as §1

[5] = biological target: T3, KIT (Homo sapiens, UniProt P10721); assay: Competition binding assay, KIT Kd
T3 construct: made in house
Description: as §1

[6] = biological target: T4, FLT3 (Homo sapiens, UniProt P36888); assay: Competition binding assay, FLT3 Kd
T4 construct: made in house
T4 sequence (P36888 27-993): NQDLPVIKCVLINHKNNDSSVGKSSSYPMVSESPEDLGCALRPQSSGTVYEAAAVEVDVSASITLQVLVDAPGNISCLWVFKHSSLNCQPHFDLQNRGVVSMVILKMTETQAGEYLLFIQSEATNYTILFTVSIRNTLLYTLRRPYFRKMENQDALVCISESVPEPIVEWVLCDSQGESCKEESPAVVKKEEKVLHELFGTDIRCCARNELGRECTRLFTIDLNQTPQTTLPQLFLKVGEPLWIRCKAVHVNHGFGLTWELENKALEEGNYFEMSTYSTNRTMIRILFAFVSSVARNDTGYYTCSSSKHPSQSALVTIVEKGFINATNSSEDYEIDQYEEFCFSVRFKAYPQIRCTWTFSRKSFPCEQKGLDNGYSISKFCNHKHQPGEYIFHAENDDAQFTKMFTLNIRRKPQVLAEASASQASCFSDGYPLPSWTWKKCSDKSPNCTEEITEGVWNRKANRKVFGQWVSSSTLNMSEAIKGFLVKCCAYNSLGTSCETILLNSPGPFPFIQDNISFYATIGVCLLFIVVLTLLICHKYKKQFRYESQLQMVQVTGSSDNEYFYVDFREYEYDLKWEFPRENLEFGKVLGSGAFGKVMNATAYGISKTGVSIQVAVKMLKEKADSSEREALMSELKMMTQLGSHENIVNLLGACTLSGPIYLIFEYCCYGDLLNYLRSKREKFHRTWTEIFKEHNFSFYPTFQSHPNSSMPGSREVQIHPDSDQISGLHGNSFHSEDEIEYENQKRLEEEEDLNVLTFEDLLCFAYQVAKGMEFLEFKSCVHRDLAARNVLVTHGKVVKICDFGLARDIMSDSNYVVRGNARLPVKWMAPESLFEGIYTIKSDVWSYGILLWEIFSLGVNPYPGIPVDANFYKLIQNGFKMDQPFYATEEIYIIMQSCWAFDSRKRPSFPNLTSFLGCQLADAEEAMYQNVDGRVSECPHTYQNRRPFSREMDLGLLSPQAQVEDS
Description: as §1

T3 sequence (P10721 26-976): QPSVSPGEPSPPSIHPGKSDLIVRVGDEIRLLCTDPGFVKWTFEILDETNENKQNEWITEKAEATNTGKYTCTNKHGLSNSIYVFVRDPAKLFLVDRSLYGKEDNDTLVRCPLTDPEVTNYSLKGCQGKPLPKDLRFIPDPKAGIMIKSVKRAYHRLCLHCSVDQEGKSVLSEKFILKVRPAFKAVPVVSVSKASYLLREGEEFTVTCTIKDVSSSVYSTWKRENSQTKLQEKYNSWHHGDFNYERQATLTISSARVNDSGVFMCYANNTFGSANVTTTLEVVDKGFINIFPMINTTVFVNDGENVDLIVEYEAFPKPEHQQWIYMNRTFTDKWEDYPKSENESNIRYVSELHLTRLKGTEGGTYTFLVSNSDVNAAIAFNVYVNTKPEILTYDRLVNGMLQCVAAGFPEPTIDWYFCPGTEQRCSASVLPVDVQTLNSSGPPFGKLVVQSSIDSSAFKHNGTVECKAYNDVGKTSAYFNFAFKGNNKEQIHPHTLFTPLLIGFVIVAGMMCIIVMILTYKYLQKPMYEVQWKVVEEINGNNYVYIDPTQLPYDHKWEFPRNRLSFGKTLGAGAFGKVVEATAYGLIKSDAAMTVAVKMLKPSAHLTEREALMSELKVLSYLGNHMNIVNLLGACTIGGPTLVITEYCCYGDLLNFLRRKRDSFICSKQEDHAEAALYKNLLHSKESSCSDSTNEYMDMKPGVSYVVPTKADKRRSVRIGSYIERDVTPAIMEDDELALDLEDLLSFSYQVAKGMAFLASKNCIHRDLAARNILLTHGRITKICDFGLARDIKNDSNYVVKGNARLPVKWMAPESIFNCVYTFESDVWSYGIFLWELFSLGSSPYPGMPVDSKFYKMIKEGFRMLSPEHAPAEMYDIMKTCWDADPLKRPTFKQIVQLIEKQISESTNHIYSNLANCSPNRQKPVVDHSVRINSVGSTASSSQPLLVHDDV
T2 sequence (P09619 33-1106): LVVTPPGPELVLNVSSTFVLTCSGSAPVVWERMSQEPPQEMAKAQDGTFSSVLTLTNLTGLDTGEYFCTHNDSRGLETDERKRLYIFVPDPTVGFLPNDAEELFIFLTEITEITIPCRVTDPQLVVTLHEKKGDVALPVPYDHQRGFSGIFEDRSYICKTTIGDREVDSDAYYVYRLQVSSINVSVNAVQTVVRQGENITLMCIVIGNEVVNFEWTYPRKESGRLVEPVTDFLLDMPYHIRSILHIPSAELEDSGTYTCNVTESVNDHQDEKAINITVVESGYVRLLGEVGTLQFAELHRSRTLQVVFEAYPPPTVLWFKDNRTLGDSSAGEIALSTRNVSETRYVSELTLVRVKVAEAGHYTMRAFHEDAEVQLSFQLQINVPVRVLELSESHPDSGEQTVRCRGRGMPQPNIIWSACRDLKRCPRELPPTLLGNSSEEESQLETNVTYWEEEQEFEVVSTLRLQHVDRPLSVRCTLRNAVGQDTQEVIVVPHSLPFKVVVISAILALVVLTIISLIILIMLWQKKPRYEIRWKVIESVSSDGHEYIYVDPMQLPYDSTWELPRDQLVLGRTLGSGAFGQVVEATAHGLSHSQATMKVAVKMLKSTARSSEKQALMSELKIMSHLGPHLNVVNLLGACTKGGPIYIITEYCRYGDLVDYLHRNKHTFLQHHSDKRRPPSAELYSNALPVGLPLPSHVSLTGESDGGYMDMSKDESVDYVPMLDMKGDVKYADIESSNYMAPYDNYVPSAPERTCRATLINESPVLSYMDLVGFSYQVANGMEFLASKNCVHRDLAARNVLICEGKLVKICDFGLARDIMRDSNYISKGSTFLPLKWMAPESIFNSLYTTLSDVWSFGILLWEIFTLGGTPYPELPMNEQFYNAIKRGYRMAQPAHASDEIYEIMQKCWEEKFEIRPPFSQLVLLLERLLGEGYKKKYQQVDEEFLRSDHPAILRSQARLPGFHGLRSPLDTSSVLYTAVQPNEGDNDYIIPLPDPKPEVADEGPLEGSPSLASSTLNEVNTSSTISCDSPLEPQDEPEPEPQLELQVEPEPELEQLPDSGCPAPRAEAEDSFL
T1 sequence (P07333 20-972): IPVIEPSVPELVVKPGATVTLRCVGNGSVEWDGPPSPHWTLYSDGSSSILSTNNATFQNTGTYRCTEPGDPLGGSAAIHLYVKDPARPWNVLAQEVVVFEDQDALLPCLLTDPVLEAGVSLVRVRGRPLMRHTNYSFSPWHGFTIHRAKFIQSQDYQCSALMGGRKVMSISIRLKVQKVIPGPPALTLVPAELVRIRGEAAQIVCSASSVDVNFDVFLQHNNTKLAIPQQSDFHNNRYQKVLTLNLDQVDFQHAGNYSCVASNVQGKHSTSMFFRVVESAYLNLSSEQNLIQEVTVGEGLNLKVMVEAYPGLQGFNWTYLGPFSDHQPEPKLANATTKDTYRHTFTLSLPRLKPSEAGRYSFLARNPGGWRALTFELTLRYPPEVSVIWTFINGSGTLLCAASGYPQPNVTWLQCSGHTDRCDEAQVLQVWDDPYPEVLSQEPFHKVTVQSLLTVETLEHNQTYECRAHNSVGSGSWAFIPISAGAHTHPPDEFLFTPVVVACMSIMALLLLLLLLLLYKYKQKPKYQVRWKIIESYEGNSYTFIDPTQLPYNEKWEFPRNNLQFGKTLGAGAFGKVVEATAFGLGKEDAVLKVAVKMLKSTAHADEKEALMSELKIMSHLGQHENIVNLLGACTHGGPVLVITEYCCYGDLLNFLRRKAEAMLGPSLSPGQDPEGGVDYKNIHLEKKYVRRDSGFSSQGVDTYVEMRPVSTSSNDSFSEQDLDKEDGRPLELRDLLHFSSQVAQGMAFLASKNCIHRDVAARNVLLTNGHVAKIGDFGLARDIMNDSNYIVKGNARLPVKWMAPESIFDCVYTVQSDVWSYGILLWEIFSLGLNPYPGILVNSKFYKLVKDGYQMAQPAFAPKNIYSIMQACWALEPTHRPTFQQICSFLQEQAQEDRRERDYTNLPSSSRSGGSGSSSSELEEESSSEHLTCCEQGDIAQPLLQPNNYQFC

| SMILES | IC50 [1] | IC50 [2] | Kd [3] | Kd [4] | Kd [5] | Kd [6] |
| --- | --- | --- | --- | --- | --- | --- |
| COc1cc2ncn(Cc3ccc4nc(N[C@@H]5c6ccccc6C[C@@H]5O)sc4c3)c2cc1OC [Example 10, (1R,2S)-1-((6-((5,6-dimethoxy-1H-benzo[d]imidazol-1-yl)methyl)benzo[d]thiazol-2-yl)amino)-2,3-dihydro-1H-inden-2-ol] | 400 to 1500 nM | 200 to 500 nM | 50 to 500 nM | 5 to 20 nM | 500 to 2000 nM | 1000 to 5000 nM |
| COc1cc2ncn(Cc3ccc4nc(N[C@H]5CCc6ccccc65)sc4c3)c2cc1OC [Example 11, (S)—N-(2,3-dihydro-1H-inden-1-yl)-6-((5,6-dimethoxy-1H-benzo[d]imidazol-1-yl)methyl)benzo[d]thiazol-2-amine] | 400 to 1500 nM | 200 to 500 nM | 50 to 500 nM | 5 to 20 nM | 100 to 500 nM | 200 to 1000 nM |
| COC(c1ccc2nc(N[C@@H]3CCCC[C@H]3O)sc2c1)c1c[nH]c2ncccc12 (stereo partly drawn) [Example 12, (1R,2R)-2-((6-(methoxy(1H-pyrrolo[2,3-b]pyridin-3-yl)methyl)benzo[d]thiazol-2-yl)amino)cyclohexanol] | > 1500 nM | 200 to 500 nM | > 2000 nM | > 50 nM | > 2000 nM | 1000 to 5000 nM |
| COc1cc2ncn(Cc3ccc4nc(NCc5ccccc5)sc4c3)c2cc1OC [Example 13, N-benzyl-6-((5,6-dimethoxy-1H-benzo[d]imidazol-1-yl)methyl)benzo[d]thiazol-2-amine] | 400 to 1500 nM | 50 to 200 nM | 50 to 500 nM | 5 to 20 nM | 100 to 500 nM | 1000 to 5000 nM |
| COc1cc2ncn(Cc3ccc4nc(NCCN5CCOCC5)sc4c3)c2cc1OC [Example 14, 6-((5,6-dimethoxy-1H-benzo[d]imidazol-1-yl)methyl)-N-(2-morpholinoethyl)benzo[d]thiazol-2-amine] | > 1500 nM | > 500 nM | 500 to 2000 nM | > 50 nM | > 2000 nM | 1000 to 5000 nM |
| COc1cc2ncn(Cc3ccc4nc(NC5CCOCC5)sc4c3)c2cc1OC [Example 15, 6-((5,6-dimethoxy-1H-benzo[d]imidazol-1-yl)methyl)-N-(tetrahydro-2H-pyran-4-yl)benzo[d]thiazol-2-amine] | > 1500 nM | 200 to 500 nM | > 2000 nM | 20 to 50 nM | 500 to 2000 nM | > 5000 nM |
| COc1cc2ncn(Cc3ccc4nc(N(C)C5CCCCC5)sc4c3)c2cc1OC [Example 16, N-cyclohexyl-6-((5,6-dimethoxy-1H-benzo[d]imidazol-1-yl)methyl)-N-methylbenzo[d]thiazol-2-amine] | > 1500 nM | 200 to 500 nM | 500 to 2000 nM | 20 to 50 nM | 100 to 500 nM | 200 to 1000 nM |
| O[C@@H]1CCCC[C@H]1Nc1nc2ccc(Cc3c[nH]c4ncccc34)cc2s1 [Example 17, (1R,2R)-2-((6-((1H-pyrrolo[2,3-b]pyridin-3-yl)methyl)benzo[d]thiazol-2-yl)amino)cyclohexanol] | 400 to 1500 nM | 200 to 500 nM | 50 to 500 nM | 5 to 20 nM | > 2000 nM | 200 to 1000 nM |
| COc1cc2ncn(Cc3ccc4nc(NC5CCCCC5)sc4c3)c2cc1OC [Example 18, N-cyclohexyl-6-((5,6-dimethoxy-1H-benzo[d]imidazol-1-yl)methyl)benzo[d]thiazol-2-amine] | 50 to 400 nM | ≤ 50 nM | ≤ 50 nM | ≤ 5 nM | ≤ 100 nM | ≤ 200 nM |
| COc1cc2ncn(Cc3ccc4nc(N[C@@H]5c6ccccc6C[C@H]5O)sc4c3)c2cc1OC [Example 19, (1R,2R)-1-((6-((5,6-dimethoxy-1H-benzo[d]imidazol-1-yl)methyl)benzo[d]thiazol-2-yl)amino)-2,3-dihydro-1H-inden-2-ol] | 50 to 400 nM | 50 to 200 nM | 50 to 500 nM | ≤ 5 nM | 100 to 500 nM | 1000 to 5000 nM |

From patent publication US9938261B2, “Heterocyclic compounds and methods of use thereof” (AMBIT BIOSCIENCES CORPORATION, priority 2011, dated 2018)
